Each structure is given as a SMILES string.

The test system of data set [1] is established cell lines and primary neuronal cultures. Particulars: cited from earlier work.
Data set [2] concerns cells. As to the kind of experiment: Cell toxicity by total cellular protein synthesis (Bio-Rad Protein Assay) or cell proliferation (XTT). The data set is classed as cell-based. The text has this:
Compositions comprising HGDs of the invention, plasmid DNA, and a co-lipid such as DOPE or cholesterol were not appreciably toxic to cells. Toxicity measurements were based upon total cellular protein synthesis (Bio-Rad Protein Assay) or cell proliferation (Cell-Proliferation Kit-XTT, Boehringer Mannheim).
Background: Tetrazolium assays rely on reduction of a dye to a coloured formazan, in cell work by metabolically active cells.

The subject of a further data set is tumors. The data set can be described thus: In vivo anti-tumor efficacy, intratumoral IL-2 plasmid compositions. On the set-up: species or system mice. Particulars: for growth of tumors in mice: compositions with IL-2 plasmid DNA and DOPE, given directly into the tumor; for size of tumors, average: with DNA and DOPE; for size of tumors, average / reduction of growth rates of tumors: 1:2 -/+ charge ratio; for reduction of growth rates of tumors: with IL-2 plasmid DNA and DOPE. The text has this:
Compositions comprising HGDs of the invention, plasmid DNA comprising an IL-2 gene, and DOPE efficaciously retarded the growth of tumors in mice. These model-tumor studies involved implanting a tumor into mice, administering a composition of the invention directly into the tumor, and monitoring the growth of tumors in the mice. A protocol for such a procedure is taught in U.S. application Ser. No. 60/039,709, Raiston et al., “IL-2 Gene Expression and Delivery Systems and Uses,” filed Feb. 10, 1997, incorportated herein by reference in its entirety including any figures, tables, and drawings.

Data set [3] deals with cells. As to the kind of experiment: Transfection efficiency: IL-2 expressed by cells given HGD/IL-2 plasmid compositions. Particulars: for IL-2 expression by cells: 0.2 μg IL-2 plasmid, cholesterol or DOPE co-lipid, 48 hours. The data set is classed as cell-based. Here is the method:
HGDs of the invention formed DNA/HGD complexes that efficiently delivered DNA plasmids to cells. The transfection efficiency was measured after compositions comprising HGDs of the invention, 0.2 μg of DNA plasmids comprising a gene encoding IL-2, and either cholesterol or DOPE as a co-lipid were incubated with cells for 48 hours. The amount of IL-2 expressed by cells administered the compositions was quantified using by an assay disclosed in U.S. application Ser. No. 60/039,709, Raiston et al., “IL-2 Gene Expression and Delivery Systems and Uses,” filed Feb. 10, 1997, incorportated herein by reference in its entirety including any figures, tables, and drawings.

A further data set relates to SCCVII tumors. The data set can be described thus: CAT reporter gene expression after injection of lipid/DNA complexes into tumors. It counts as in vivo. The settings on record: complex with CAT DNA plasmid injected into SCCVII tumors; 10% lactose. Here is the method: A variety of HGD/DNA complexes were injected into SCCVII tumors. […] Other lipophilic molecules included DOTMA complexed with cholesterol, DOTIM complexed with DOPE and cholesterol, MMCE complexed with DOPE and cholesterol and DiP-PE, EPMC complexed with DOPE and cholesterol. All complexes comprised 10% lactose.
A general note: In a reporter assay the amount or activity of a reporter protein is the signal.

Regarding `CCCCCCCCCCCCCCCCCCN(CCCCCCCCCCCCCCCCCC)C(=O)CNC(=O)C(CCCNCCCN)NCCCN` (stereo not drawn) [DOGS], in data set [1], the “transfection efficiency relative to calcium phosphate” value was “more efficiently than calcium phosphate by at least two orders of magnitude”.

Regarding `CCCCCCCCCCCCCCCC(=O)OCC(COP(=O)(O)OCCNC(=O)C(CCCNCCCN)NCCCN)OC(=O)CCCCCCCCCCCCCCC` (stereo not drawn) [DPPES], the “transfection efficiency relative to calcium phosphate” value in data set [1] is given as “more efficiently than calcium phosphate by at least two orders of magnitude”.

Take `CCCCCCCCCCCCCCCCO[C@@H]1OC(CO)[C@@H](O)C(O)C1N` (stereo partly drawn) [MPG, 1-mono-palmityl-glucosamine]: the “health of cells compared with LipofectAMINE liposome compositions” value in the data set with cells [2] is “healthier”. In the data set on tumors, the “growth of tumors in mice” value is on record as “significantly reduced the growth of tumors”. Also, the “size of tumors, average” value with tumors (thirteen days, untreated approximately 1600) is listed as “less than 1200 cubic millimeters”. For the same molecule, in the data set with tumors (after thirteen days), the “reduction of growth rates of tumors” value is recorded as “more than 25%”.

Regarding `CCCCCCCC/C=C\CCCCCCCCO[C@@H]1OC(CO)[C@@H](O)C(O)C1N` (stereo partly drawn) [MOG, 1-mono-oleyl-glucosamine], the “IL-2 expression compared with DOTMA liposomes” value in the data set with cells [3] (1:3 charge ratio) was “as large as the amount of IL-2 expressed by cells administered liposomes comprising an efficient delivery lipid, DOTMA”. Moreover, the entries for the “IL-2 expression by cells” value in the data set on cells [3] (-/+ charge ratio 1:0.5) and in the data set with cells [3] (-/+ charge ratio 1:3) were “not significantly expressed” and “significantly expressed”, respectively. The “expression and recovery of total protein, of normal protein levels” value with cells [2] (MOG composition contains DOPE, compared with LipofectAMINE composition) is given as “more than 75%”. Besides, in the data set on cells [2], the “health of cells compared with LipofectAMINE liposome compositions” value is recorded as “healthier”. For the same molecule, in the data set with SCCVII tumors, the “expression of the CAT reporter gene” value is reported as “highest expression of the CAT reporter gene of any of the lipophilic molecule/DNA complexes tested”. The “growth of tumors in mice” value with tumors was “significantly reduced the growth of tumors”. Further, the “size of tumors, average” value in the data set with tumors (nine days, untreated 600) is given as “less than 400 cubic millimeters”. In the data set on tumors (after nine days), the “reduction of growth rates of tumors” value is “more than 30%”.
